Data published in patent publication US12102634B2, “Use of berbamine or its analogue for preventing or treating RNA virus infection” (City University of Hong Kong, priority 2019, dated 2024).
“Also recorded” adds a separate entry of the source. Like-named read-outs stand apart in the source and are kept apart here.

What was measured:
ZIKV [1] = experiment: Viral positive RNA strand hybridization in host cells treated with calcium chelator; assay type: cell-based, Zika virus
JEV [2] = experiment: Western blot of JEV envelope protein in A549 cells; conditions: dose dependent
JEV [3] = experiment: High-content image assay (DsRNA immunostaining), JEV infection of A549 cells; conditions: for JEV infection in A549 host cells (relative infectivity, FIG. 8A): 13 compounds from virtual screening; for entry of JEV into the host cells (FIG. 8B): A549 cells; for entry of JEV into the host cells (FIG. 8B) / JEV infection of host cells: about 50 MOI JEV; for JEV infection of host cells: A549 cells pretreated 1 h
JEV [4] = experiment: High-content image assay, JEV infection of JEG-3 cells; conditions: JEG-3 cells pretreated 1 h, about 50 MOI, 18 h
ZIKV [5] = experiment: High-content image assay, ZIKV infection of JEG-3 cells; conditions: JEG-3 cells pretreated 1 h, about 50 MOI, 18 h
JEV [6] = experiment: Western blot of JEV-NS1 expression in JEV-infected A549 cells; conditions: A549 cells pretreated 1 h
ZIKV [7] = experiment: Western blot of ZIKV-E expression in ZIKV-infected A549 cells; conditions: A549 cells pretreated 1 h
TRPMLs = experiment: ML-SA1-induced cytosolic Ca2+ increase in Fura-2-loaded HeLa cells; assay type: cell-based
Experimental: (§1) HeLa cells were grown in 24-well plates to ˜80% confluency. The cells were then loaded with HBSS (Gibco, 14025092) containing 4 μM Fura-2 AM (Invitrogen, F1221) and 0.4% Pluronic™ F-127 (Invitrogen, P3000MP) at room temperature for 30 min. The cells were then washed with Ca^2+-free HBSS containing 2 mM EGTA and incubated in Ca^2+-free HBSS in the presence or absence of berbamine (10 μM) at room temperature for another 30 min. Fluorescence images were acquired at 3 s intervals by alternate excitation at 340 nm and 380 nm with emission at 510 nm using a Nikon Eclipse Ti-S Calcium imaging system. Approximately 1 min after live cell imaging, 200 μM GPN (Abcam, ab145914) or 25 μM ML-SA1 (Tocris Bioscience, 4746) was added to the cells to trigger Ca2+ release from the lysosomes.

JEV [8] = experiment: JEV lethal challenge in mice; assay type: in vivo, BALB/c mice; conditions: 15 days
Experimental: JEV-infected with berbamine-treated group. For infection, mice were injected intraperitoneally with approximately 10^6.5 TCID50 of JEV. For the berbamine treatment group, mice were injected intraperitoneally with a dose of 15 mg/kg berbamine or PBS daily. For the control-vehicle group, mice were injected intraperitoneally with a dose of 50 mg/kg PBS daily. Survival rate and change of body weight if the mice in each group were monitored for 15 days after JEV injection.

EV-A71 = experiment: High-content image assay, EV-A71 infection of RD cells; assay type: cell-based, enterovirus EV-A71 (EV-71); conditions: 10 MOI EV-71, read-out: EC50 against EV-A71 infection in RD cells
Excerpt: After viral infection, the cells are fixed.

lentivirus = experiment: Lentivirus (histone B-RFP) infection of A549 cells; assay type: cell-based; conditions: pretreated A549 cells, lentivirus encoding histone B-RFP
[9] = system: MLV-SARS-CoV-2 S pseudotyped particles; assay type: cell-based
[10] = system: MERS-SARS-CoV S pseudotyped particles; assay type: cell-based
MERS-CoV = assay type: cell-based
SARS-CoV-2 [11] = experiment: SARS-CoV-2 infection of Vero-E6 cells, virus titration assay; assay type: cell-based; conditions: Severe acute respiratory syndrome coronavirus 2, Vero C1008, read-out: EC50, SARS-CoV-2 viral yield by virus titration assay
Experimental: FIG. 12F is a plot showing the inhibition rate determined by using virus titer measurement, in which Vero-E6 cells were treated with berbamine at the indicated concentrations for 3 h, followed by infection with SARS-CoV-2.

lysosomal Ca^2+ channels = experiment: GPN-induced Ca2+ release from lysosomes in Fura-2-loaded HeLa cells; assay type: cell-based; conditions: 10 μM, 200 μM GPN
Experimental: as §1

Huh7 cells = experiment: Secretion of extracellular vesicles by Huh7 cells, nanoparticle tracking analyzer; assay type: cell-based
Experimental: The EVs were collected from the culture medium of control or berbamine-treated Huh7 cells, and their concentration and distribution of sizes were determined with a nanoparticle tracking analyzer.
The inventors then examined whether these EVs contain elevated levels of ACE2 or DPP4 in the berbamine-treated group when compared with the control group. Thus, EVs in the culture medium from the control and berbamine-treated Huh7 cells were collected by ultracentrifugation, and the protein levels of ACE2 and DPP4 were analyzed by immunoblot analysis. […] The inventors also speculated that the increase in the secretion of ACE2 and DPP4-containing exosomes out of cells might lead to the reduced levels of these receptors in berbamine-treated cells. […] Similar results regarding the effects of berbamine on the expression of ACE2 in cells or EVs have also observed in A549 cells (FIGS. 15D and 15E). […] This leads to an increase in the level of secretion of ACE2 or DPP4 via EVs and a concomitant decrease in their levels at the plasma membrane.
Purification of extracellular vesicles from the culture medium-A549 cells or Huh7 cells were grown in 15-cm dishes to ˜80% confluency. The cells were then rinsed with PBS and incubated in EV-depleted complete medium containing DMSO or berbamine (25 μM) for 48 h. […]

ACE2 = assay type: cell-based
DPP4 = assay type: cell-based
SARS-CoV-2 [12] = experiment: in vitro; conditions: African green monkey
[13] = Cytotoxicity in Vero cells; conditions: African green monkey
[14] = Cytotoxicity in Hela cells; conditions: human
[15] = Cytotoxicity in A549 cells; conditions: human
[16] = Cytotoxicity in Huh7 cells; conditions: human
[17] = Cytotoxicity in BHK-21 cells; conditions: Syrian hamster
SARS-CoV-2 [18] = experiment: microbe, parasite or virus in culture; conditions: Severe acute respiratory syndrome coronavirus 2, Vero C1008, read-out: EC50, SARS-CoV-2 viral yield by qRT-PCR assay
JEV [19] = experiment: JEV-induced cell death in A549 or BHK-21 cells; conditions: pretreated A549 cells or BHK-21 cells
JEV [20] = experiment: Virus titration assay, JEV production in A549 cells; conditions: A549 cells pretreated
DENV-2 = experiment: DsRNA immunostaining, DENV-2 infection of A549 cells; conditions: pretreated 1 h, about 10 MOI DENV-2, dose dependent
ZIKV [21] = experiment: ZIKV entry, anti-ZIKV envelope protein immunostaining in A549 cells; conditions: ZIKV on ice 1 h, then 37° C. 40 min
ZIKV [22] = experiment: High-content image assay (DsRNA immunostaining), ZIKV infection of A549 cells; conditions: for ZIKV infection of host cells: A549 cells pretreated 1 h, about 50 MOI ZIKV
[23] = 15 mg/kg intraperitoneally daily, vs control group
[24] = EVs from treated Huh7 cell culture medium
[25] = Vero-E6 cells, cycloheximide, 50 μM, 6 h

CC(=O)OCOC(=O)CN(CC(=O)OCOC(C)=O)c1ccccc1OCCOc1ccccc1N(CC(=O)OCOC(C)=O)CC(=O)OCOC(C)=O [BAPTA-AM]
viral positive RNA strand inside host cells (ZIKV [1]): no ZIKV positive RNA strand was spotted | expression of JEV envelope protein (JEV [2]): markedly inhibited

COc1cc(C(=O)N2c3ccccc3CCC2C)cc(OC)c1OC (stereo not drawn) [Compound #1]
JEV infection in A549 host cells (relative infectivity, FIG. 8A) (JEV [3]): highest potency | entry of JEV into the host cells (FIG. 8B) (JEV [3]): effectively block

COc1cc2c(cc1OC)C(C)N(C(=O)c1ccc(Br)cc1)CC2 (stereo not drawn) [Compound #7]
JEV infection in A549 host cells (relative infectivity, FIG. 8A) (JEV [3]): highest potency | entry of JEV into the host cells (FIG. 8B) (JEV [3]): effectively block

COc1cc2c(cc1OC)C(c1cc(OC)c(OC)c(OC)c1)OCC2 (stereo not drawn) [Compound #9]
JEV infection in A549 host cells (relative infectivity, FIG. 8A) (JEV [3]): highest potency | entry of JEV into the host cells (FIG. 8B) (JEV [3]): effectively block

COc1cccc(C(=O)CC2c3c(cc4c(c3OC)OCO4)CCN2C)c1 (stereo not drawn) [Compound #11]
JEV infection in A549 host cells (relative infectivity, FIG. 8A) (JEV [3]): highest potency | entry of JEV into the host cells (FIG. 8B) (JEV [3]): effectively block

COc1cc2c3cc1Oc1c(OC)c(OC)cc4c1[C@@H](Cc1ccc(OC(=O)c5ccc([N+](=O)[O-])cc5)c(c1)Oc1ccc(cc1)C[C@@H]3N(C)CC2)N(C)CC4 [E6 berbamine]
JEV infection in JEG-3 cells (JEV [4]): significantly inhibited | ZIKV infection in JEG-3 cells (ZIKV [5]): significantly inhibited | protein expression of JEV-NS1 (JEV [6]): strong inhibition | protein expression of ZIKV-E (ZIKV [7]): strong inhibition

CC1CC(C)(C)N(C(=O)CN2C(=O)c3ccccc3C2=O)c2ccccc21 (stereo not drawn) [ML-SA1, reference compound]
cytosolic Ca2+ levels (agonist effect) (TRPMLs; 25 μM): markedly increased

COc1cc2c3cc1Oc1c(OC)c(OC)cc4c1[C@@H](Cc1ccc(O)c(c1)Oc1ccc(cc1)C[C@@H]3N(C)CC2)N(C)CC4 [berbamine]
body weight change of mice after JEV challenge (JEV [8]; [23]): less weight changes | survival rate of mice after JEV challenge (JEV [8]; [23]): increases the survival rate | survival rate of mock (uninfected) mice given compound vs mock group (JEV [8]; mock group with 15 mg/kg): same survival rate | EC50 (EV-A71): ~17.3 µM | EC50 (EV-A71; Enterovirus A, EV71 / EVA71, RD): ~17 µM | lentivirus infection of A549 cells (lentivirus): abolished | entry of MLV-SARS-CoV-2 S pseudovirus particles [9]: effectively inhibited; also recorded: inhibited the entry | entry of MERS-SARS-CoV S pseudovirus particles [10]: effectively inhibited; also recorded: inhibited the entry | extracellular level of MERS-CoV RNA (MERS-CoV): significantly decreased | intracellular level of MERS-CoV RNA (MERS-CoV): significantly decreased | EC50 (SARS-CoV-2 [11]): ~4.7 µM | GPN-induced cytosolic Ca2+ increase (lysosomal Ca^2+ channels): significantly inhibited | ML-SA1-induced cytosolic Ca2+ increase (TRPMLs; 10 μM, 25 μM ML-SA1): significantly inhibited | secretion of EVs (Huh7 cells): significantly promoted | level of ACE2 in EVs (ACE2; [24]): markedly increased | level of ACE2 in cells (ACE2; [25]): markedly decreased | level of DPP4 in EVs (DPP4; [24]): markedly increased | level of DPP4 in cells (DPP4; [25]): markedly decreased | selectivity ratio (SARS-CoV-2 [12]): 48.9 | CC50 [13]: 115 ± 5.3 µM | CC50 [14]: 115 ± 3.6 µM | CC50 [15]: 127 ± 3.9 µM | CC50 [16]: 90.4 ± 2.98 µM | CC50 [17]: 127 ± 2.43 µM | EC50 (SARS-CoV-2 [18]): ~2.3 µM | JEV-induced cell death (JEV [19]): markedly reduced | production of JEV (virus titer) (JEV [20]): significantly inhibited; also recorded: markedly inhibited | DENV-2 infection in A549 cells (DENV-2): significantly inhibit | JEV infection in JEG-3 cells (JEV [4]): significantly inhibited | ZIKV infection in JEG-3 cells (ZIKV [5]): significantly inhibited | protein expression of JEV-NS1 (JEV [6]): markedly inhibited | protein expression of ZIKV-E (ZIKV [7]): markedly inhibited | entry of ZIKV into host cells (ZIKV [21]): inhibitory effect | selectivity ratio (JEV [3]; human): 78.2 | selectivity ratio (ZIKV [22]; human): 58.4

COc1ccc2cc1Oc1ccc(cc1)C[C@H]1c3cc(c(OC)cc3CCN1C)Oc1c(O)c(OC)cc3c1[C@H](C2)N(C)CC3 [fangchinoline]
DENV-2 infection in A549 cells (DENV-2): significantly inhibit | JEV infection in JEG-3 cells (JEV [4]): significantly inhibited | ZIKV infection in JEG-3 cells (ZIKV [5]): significantly inhibited | JEV infection of host cells (JEV [3]): significantly inhibited | ZIKV infection of host cells (ZIKV [22]): significantly inhibited

COc1ccc2cc1Oc1ccc(cc1)C[C@H]1c3cc(c(OC)cc3CCN1C)Oc1c(OC)c(OC)cc3c1[C@@H](C2)N(C)CC3 [isotetrandrine]
DENV-2 infection in A549 cells (DENV-2): significantly inhibit | JEV infection in JEG-3 cells (JEV [4]): significantly inhibited | ZIKV infection in JEG-3 cells (ZIKV [5]): significantly inhibited | JEV infection of host cells (JEV [3]): significantly inhibited | ZIKV infection of host cells (ZIKV [22]): significantly inhibited
